Legend:
[1] = tested on: JAK1-dependent STAT6 phosphorylation downstream of IL-13 stimulation in BEAS-2B human bronchial epithelial cells; assay: JAK1 pathway assay in BEAS-2B cells (IL-13-pSTAT6, MSD); format: cell-based; conditions: read-out: IL13-pSTAT6 EC50 (uM)_BEAS-2B
Method in brief: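 Compound preincubation lasted 1 hr for BEAS-2B cells in complete growth medium and 30 min for GM-CSF-starved TF-1 cells in serum-free medium. EC50 values were determined.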

[2] = target: isolated recombinant JAK1 kinase domain (Homo sapiens (Human), UniProt P23458); assay: JAK1 enzyme assay (Caliper LabChip, peptide phosphorylation); format: biochemical; conditions: isolated recombinant JAK1 kinase domain, 25 μM ATP
[3] = target: isolated recombinant JAK2 kinase domain (Homo sapiens (Human), UniProt O60674); assay: JAK2 enzyme assay (Caliper LabChip, peptide phosphorylation); format: biochemical; conditions: 25 μM ATP
Chain of isolated recombinant JAK2 kinase domain (O60674 849-1124): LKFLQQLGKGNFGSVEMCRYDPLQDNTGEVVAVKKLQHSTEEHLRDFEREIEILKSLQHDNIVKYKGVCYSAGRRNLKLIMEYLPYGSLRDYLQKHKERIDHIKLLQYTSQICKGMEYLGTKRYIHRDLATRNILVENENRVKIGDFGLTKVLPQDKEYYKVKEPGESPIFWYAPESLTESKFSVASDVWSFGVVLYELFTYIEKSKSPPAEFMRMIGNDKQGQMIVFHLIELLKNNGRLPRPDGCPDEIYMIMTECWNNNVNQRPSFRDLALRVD

Chain of isolated recombinant JAK1 kinase domain (P23458 875-1153): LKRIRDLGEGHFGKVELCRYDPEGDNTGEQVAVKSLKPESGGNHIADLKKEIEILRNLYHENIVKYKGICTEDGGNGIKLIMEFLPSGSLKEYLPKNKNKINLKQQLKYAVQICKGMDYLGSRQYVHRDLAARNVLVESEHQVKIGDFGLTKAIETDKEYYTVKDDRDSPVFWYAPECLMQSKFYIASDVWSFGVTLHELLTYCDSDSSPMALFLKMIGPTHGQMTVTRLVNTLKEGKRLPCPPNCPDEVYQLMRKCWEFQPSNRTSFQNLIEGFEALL

Question: For `CN1CCC(COC(=O)C2(C)CCN(C(=O)Cn3cc(NC(=O)c4cnn5cccnc45)c(-c4cc(Cl)ccc4OC(F)F)n3)CC2)CC1` [Example 389, (1-methylpiperidin-4-yl)methyl 1-(2-[3-[5-chloro-2-(difluoromethoxy)phenyl]-4-[pyrazolo[1,5-a]pyrimidine-3-amido]-1H-pyrazol-1-yl]acetyl)-4-methylpiperidine-4-carboxylate], which EC50 [1] is on record?
Answer: The EC50 was 0.0175 µM.

Question: What about the Ki [2] of the same compound?
Answer: The Ki was 0.4 nM.

Question: And the Ki [3]?
Answer: Its Ki is 2.16 nM.

Question: For `O=C(Nc1cn(CC(=O)N2CCN(CCN3CCSCC3)CC2)nc1-c1cc(Cl)ccc1OC(F)F)c1cnn2cccnc12` [Example 460, N-(3-(5-chloro-2-(difluoromethoxy)phenyl)-1-(2-oxo-2-(4-(2-thiomorpholinoethyl)piperazin-1-yl)ethyl)-1H-pyrazol-4-yl)pyrazolo[1,5-a]pyrimidine-3-carboxamide], which EC50 [1] is on record?
Answer: Its EC50 is 0.0068 µM.

Question: And the Ki [2]?
Answer: Its Ki is 0.39 nM.

Question: What about the Ki [3] of the same compound?
Answer: The Ki was 1.1 nM.

Question: What does the source list for `CN(CCn1cc(NC(=O)c2cnn3cccnc23)c(-c2cc(Cl)ccc2OC(F)F)n1)CC1CCC(=O)O1` (stereo not drawn) [Example 390, N-[3-[5-chloro-2-(difluoromethoxy)phenyl]-1-(2-[methyl[(5-oxooxolan-2-yl)methyl]amino]ethyl)-1H-pyrazol-4-yl]pyrazolo[1,5-a]pyrimidine-3-carboxamide]?
Answer: EC50 [1]: 0.0424 µM; Ki [2]: 1.28 nM; Ki [3]: 0.84 nM

Question: What does the source list for `O=C(Nc1cn(CC(=O)N2CCC(OCC(=O)N3CCOCC3)CC2)nc1-c1cc(Cl)ccc1OC(F)F)c1cnn2cccnc12` [Example 453, N-(3-(5-chloro-2-(difluoromethoxy)phenyl)-1-(2-(4-(2-morpholino-2-oxoethoxy)piperidin-1-yl)-2-oxoethyl)-1H-pyrazol-4-yl)pyrazolo[1,5-a]pyrimidine-3-carboxamide]?
Answer: EC50 [1]: 0.0304 µM; Ki [2]: 0.41 nM; Ki [3]: 1.3 nM

Question: Which EC50 [1] does the source give for `CC1(C(=O)OCCN2CCOCC2)CCN(C(=O)Cn2cc(NC(=O)c3cnn4cccnc34)c(-c3cc(Cl)ccc3OC(F)F)n2)CC1` [Example 339, 2-(morpholin-4-yl)ethyl1-(2-[3-[5-chloro-2-(difluoromethoxy)phenyl]-4-[pyrazolo[1,5-a]pyrimidine-3-amido]-1H-pyrazol-1-yl]acetyl)-4-methylpiperidine-4-carboxylate] here?
Answer: The EC50 was 0.0094 µM.

Question: What about the Ki [2] of the same compound?
Answer: The Ki was 0.41 nM.

Question: And the Ki [3]?
Answer: The Ki was 1.01 nM.

Question: `O=C(Nc1cn(CCNCc2ccccn2)nc1-c1cc(Cl)ccc1OC(F)F)c1cnn2cccnc12` [Example 314, N-[3-[5-chloro-2-(difluoromethoxy)phenyl]-1-[2-[(pyridin-2-ylmethyl)amino]ethyl]-1H-pyrazol-4-yl]pyrazolo[1,5-a]pyrimidine-3-carboxamide] was tested. Which EC50 [1] did it give?
Answer: Its EC50 is 0.0995 µM.

Question: What about the Ki [2] of the same compound?
Answer: The Ki was 0.62 nM.

Question: And the Ki [3]?
Answer: Its Ki is 0.39 nM.

Question: Which results are given for `CN(C)CCOC(=O)C1(C)CCN(C(=O)Cn2cc(NC(=O)c3cnn4cccnc34)c(-c3cc(Cl)ccc3OC(F)F)n2)CC1` [Example 340, 2-(dimethylamino)ethyl 1-(2-[3-[5-chloro-2-(difluoromethoxy)phenyl]-4-[pyrazolo[1,5-a]pyrimidine-3-amido]-1H-pyrazol-1-yl]acetyl)-4-methylpiperidine-4-carboxylate]?
Answer: EC50 [1]: 0.009 µM; Ki [2]: 0.44 nM; Ki [3]: 1.79 nM

Question: With `O=C1CC(N2CCN(C(=O)Cn3cc(NC(=O)c4cnn5cccnc45)c(-c4cc(Cl)ccc4OC(F)F)n3)CC2)CCO1` (stereo not drawn) [Example 347, N-[3-[5-chloro-2-(difluoromethoxy)phenyl]-1-[2-oxo-2-[4-(2-oxooxan-4-yl)piperazin-1-yl]ethyl]-1H-pyrazol-4-yl]pyrazolo[1,5-a]pyrimidine-3-carboxamide] as the compound, how does the EC50 [1] read?
Answer: Its EC50 is 0.0307 µM.

Question: And the Ki [2]?
Answer: Its Ki is 0.39 nM.

Question: And the Ki [3]?
Answer: Its Ki is 0.76 nM.

Question: `CN1CCN(C2CCN(C(=O)Cn3cc(NC(=O)c4cnn5cccnc45)c(-c4cc(Cl)ccc4OC(F)F)n3)CC2)CC1` [Example 349, N-[3-[5-chloro-2-(difluoromethoxy)phenyl]-1-[2-[4-(4-methylpiperazin-1-yl)piperidin-1-yl]-2-oxoethyl]-1H-pyrazol-4-yl]pyrazolo[1,5-a]pyrimidine-3-carboxamide] was tested. Which EC50 [1] did it give?
Answer: The EC50 was 0.0155 µM.

Question: What about the Ki [2] of the same compound?
Answer: Its Ki is 0.55 nM.

Question: What about the Ki [3] of the same compound?
Answer: The Ki was 1.65 nM.

Question: With `N#CCCN1CCN(C(=O)Cn2cc(NC(=O)c3cnn4cccnc34)c(-c3cc(Cl)ccc3OC(F)F)n2)CC1` [Example 406, N-(3-(5-chloro-2-(difluoromethoxy)phenyl)-1-(2-(4-(2-cyanoethyl)piperazin-1-yl)-2-oxoethyl)-1H-pyrazol-4-yl)pyrazolo[1,5-a]pyrimidine-3-carboxamide] as the compound, how does the EC50 [1] read?
Answer: Its EC50 is 0.0333 µM.

Question: And the Ki [2]?
Answer: The Ki was 0.46 nM.

Question: What about the Ki [3] of the same compound?
Answer: Its Ki is 0.99 nM.

Question: With `CNC(=O)[C@@H]1CCCN1C1CCN(C(=O)Cn2cc(NC(=O)c3cnn4cccnc34)c(-c3cc(Cl)ccc3OC(F)F)n2)CC1` [Example 426, N-(3-(5-chloro-2-(difluoromethoxy)phenyl)-1-(2-(4-((S)-2-(methyl-carbamoyl)pyrrolidin-1-yl)piperidin-1-yl)-2-oxoethyl)-1H-pyrazol-4-yl)pyrazolo[1,5-a]pyrimidine-3-carboxamide] as the compound, how does the EC50 [1] read?
Answer: The EC50 was 0.0394 µM.

Question: And the Ki [2]?
Answer: The Ki was 0.53 nM.

Question: What about the Ki [3] of the same compound?
Answer: Its Ki is 1.25 nM.

Question: How did the EC50 [1] turn out when `O=C(Nc1cn(CC(=O)N2CCN(Cc3ncco3)CC2)nc1-c1cc(Cl)ccc1OC(F)F)c1cnn2cccnc12` [Example 380, N-[3-[5-chloro-2-(difluoromethoxy)phenyl]-1-[2-[4-(1,3-oxazol-2-ylmethyl)piperazin-1-yl]-2-oxoethyl]-1H-pyrazol-4-yl]pyrazolo[1,5-a]pyrimidine-3-carboxamide] was run?
Answer: Its EC50 is 0.0481 µM.

Question: What about the Ki [2] of the same compound?
Answer: The Ki was 0.3 nM.

Question: And the Ki [3]?
Answer: Its Ki is 0.68 nM.

Question: `O=C(Nc1cn(CCNCc2ccncc2)nc1-c1cc(Cl)ccc1OC(F)F)c1cnn2cccnc12` [Example 315, N-[3-[5-chloro-2-(difluoromethoxy)phenyl]-1-[2-[(pyridin-4-ylmethyl)amino]ethyl]-1H-pyrazol-4-yl]pyrazolo[1,5-a]pyrimidine-3-carboxamide] was tested. Which EC50 [1] did it give?
Answer: Its EC50 is 0.0823 µM.

Question: What about the Ki [2] of the same compound?
Answer: The Ki was 0.72 nM.

Question: What about the Ki [3] of the same compound?
Answer: The Ki was 0.4 nM.

Question: With `CC(C)(C)OC(=O)N1CC[C@H](n2cc(NC(=O)c3cnn4cccnc34)c(-c3cc(Cl)ccc3OC(F)F)n2)[C@@H](O)C1` (single isomer, unassigned) [Example 355] as the compound, how does the EC50 [1] read?
Answer: The EC50 was 0.0678 µM.

Question: And the Ki [2]?
Answer: Its Ki is 3.32 nM.

Question: What about the Ki [3] of the same compound?
Answer: The Ki was 3.72 nM.

Question: For `O=C(Nc1cn(CC(=O)N2CCC(C(=O)O)CC2)nc1-c1cc(Cl)ccc1OC(F)F)c1cnn2cccnc12` [Example 342, 1-(2-[3-[5-chloro-2-(difluoromethoxy)phenyl]-4-[pyrazolo[1,5-a]pyrimidine-3-amido]-1H-pyrazol-1-yl]acetyl)piperidine-4-carboxylic acid], which EC50 [1] is on record?
Answer: The EC50 was 1.81 µM.

Question: And the Ki [2]?
Answer: Its Ki is 0.19 nM.

Question: What about the Ki [3] of the same compound?
Answer: The Ki was 0.2 nM.

Question: `CN(C)C(=O)CN(C)C1CCN(C(=O)Cn2cc(NC(=O)c3cnn4cccnc34)c(-c3cc(Cl)ccc3OC(F)F)n2)CC1` [Example 400, N-(3-(5-chloro-2-(difluoromethoxy)phenyl)-1-(2-(4-((2-(dimethylamino)-2-oxoethyl)(methyl)amino)piperidin-1-yl)-2-oxoethyl)-1H-pyrazol-4-yl)pyrazolo[1,5-a]pyrimidine-3-carboxamide] was tested. Which EC50 [1] did it give?
Answer: Its EC50 is 0.0309 µM.

Question: And the Ki [2]?
Answer: Its Ki is 0.58 nM.

Question: And the Ki [3]?
Answer: The Ki was 1.73 nM.

Question: Which EC50 [1] does the source give for `CN1CCC(n2cc(Cn3cc(NC(=O)c4cnn5cccnc45)c(-c4cc(Cl)ccc4OC(F)F)n3)nn2)CC1` [Example 454, N-(3-(5-chloro-2-(difluoromethoxy)phenyl)-1-((1-(1-methylpiperidin-4-yl)-1H-1,2,3-triazol-4-yl)methyl)-1H-pyrazol-4-yl)pyrazolo[1,5-a]pyrimidine-3-carboxamide] here?
Answer: The EC50 was 0.0235 µM.

Question: And the Ki [2]?
Answer: The Ki was 0.4 nM.

Question: What about the Ki [3] of the same compound?
Answer: The Ki was 0.23 nM.

Question: For `O=C(O)CN1CCN(C(=O)Cn2cc(NC(=O)c3cnn4cccnc34)c(-c3cc(Cl)ccc3OC(F)F)n2)CC1` [Example 310, 2-[4-(2-[3-[5-chloro-2-(difluoromethoxy)phenyl]-4-[pyrazolo[1,5-a]pyrimidine-3-amido]-1H-pyrazol-1-yl]acetyl)piperazin-1-yl]acetic acid], which EC50 [1] is on record?
Answer: Its EC50 is 8.83 µM.

Question: What about the Ki [2] of the same compound?
Answer: Its Ki is 0.52 nM.

Question: And the Ki [3]?
Answer: The Ki was 0.59 nM.

Question: What does the source list for `O=C(Nc1cn(CC(=O)N2CCC(C(=O)OCC3CCNCC3)CC2)nc1-c1cc(Cl)ccc1OC(F)F)c1cnn2cccnc12` [Example 341, piperidin-4-ylmethyl 1-(2-[3-[5-chloro-2-(difluoromethoxy)phenyl]-4-[pyrazolo[1,5-a]pyrimidine-3-amido]-1H-pyrazol-1-yl]acetyl)piperidine-4-carboxylate]?
Answer: EC50 [1]: 0.534 µM; Ki [2]: 0.53 nM; Ki [3]: 2.62 nM

Question: Which results are given for `CN(C1CCN(C(=O)Cn2cc(NC(=O)c3cnn4cccnc34)c(-c3cc(Cl)ccc3OC(F)F)n2)CC1)C1(C#N)CC1` [Example 431, N-(3-(5-chloro-2-(difluoromethoxy)phenyl)-1-(2-(4-((1-cyanocyclopropyl)(methyl)amino)piperidin-1-yl)-2-oxoethyl)-1H-pyrazol-4-yl)pyrazolo[1,5-a]pyrimidine-3-carboxamide]?
Answer: EC50 [1]: 0.0029 µM; Ki [2]: 0.29 nM; Ki [3]: 0.74 nM

Question: Which EC50 [1] does the source give for `CCOC(=O)CCN(C)C1CCN(C(=O)Cn2cc(NC(=O)c3cnn4cccnc34)c(-c3cc(Cl)ccc3OC(F)F)n2)CC1` [Example 391, ethyl 3-[[1-(2-[3-[5-chloro-2-(difluoromethoxy)phenyl]-4-[pyrazolo[1,5-a]pyrimidine-3-amido]-1H-pyrazol-1-yl]acetyl)piperidin-4-yl](methyl)amino]propanoate] here?
Answer: Its EC50 is 0.0206 µM.

Question: What about the Ki [2] of the same compound?
Answer: Its Ki is 0.91 nM.

Question: And the Ki [3]?
Answer: Its Ki is 2.49 nM.

Question: For `O=C(O)CNC1CCN(C(=O)Cn2cc(NC(=O)c3cnn4cccnc34)c(-c3cc(Cl)ccc3OC(F)F)n2)CC1` [Example 365, 2-[[1-(2-[3-[5-chloro-2-(difluoromethoxy)phenyl]-4-[pyrazolo[1,5-a]pyrimidine-3-amido]-1H-pyrazol-1-yl]acetyl)piperidin-4-yl]amino]acetic acid], which EC50 [1] is on record?
Answer: The EC50 was 7.56 µM.

Question: What about the Ki [2] of the same compound?
Answer: Its Ki is 0.41 nM.

Question: What about the Ki [3] of the same compound?
Answer: The Ki was 0.55 nM.

Reference: US9346815B2, “5-chloro-2-difluoromethoxyphenyl pyrazolopyrimidine compounds, compositions and methods of use thereof” (Genentech, Inc., priority 2014, dated 2016)
